The results in this text go back to PubChem BioAssay AID2286 (Southern Research Specialized Biocontainment Screening …, 2010).

The experiment in a line: MAGI-CCR5 and HeLa-R5-16 cytotoxicity, dose response, cytotoxicity control for HIV-1 fusion inhibitor project, cell-based, MAGI and MAGI-HeLa co-culture (AID 2286).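 As to all read-outs here: cells exposed to compound for at least 64 h before ATP readout; 100% = median of DMSO vehicle wells with no ATP signal meaning 0%.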 To be noted: MAGI-CCR5 cells viability, CellTiter-Glo ATP luminescence; for minimum viability: measured here: MAGI minimum viability across doses.
[1] abbreviates: MAGI-HeLa co-culture viability, at 50 µM, stronger effect = lower value.
[2] abbreviates: at 12.5 µM, stronger effect = lower value.
Setting [3] is: at 3.13 µM, stronger effect = lower value.
Setting [4] is: at 1.56 µM, stronger effect = lower value.

Active and inactive are the calls of the source.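 The calls were made as follows: active = minimum cell viability of 80% or lower across the dose range, counted as toxic; inactive = minimum cell viability above 80%.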

In the case of `NC(=O)Cn1cc(C=C2C(=O)NC(=O)NC2=O)c2ccccc21`, the viability – broadly, a read-out of living cells in per cent, often relative to untreated cells – under setting [1] worked out at 99.6% and the viability (at 50 µM (top of the series)) is 91.7% (inactive). Besides, the minimum viability (at 50 µM, stronger effect = lower value) was found to be 91.7%.
Turning to `O=C(O)COc1ccccc1/C=N/Nc1ccc(S(=O)(=O)Nc2ccc(Cl)cc2)cc1[N+](=O)[O-]`, the viability is 103% under setting [1] and 99.2% (inactive) (at 50 µM (top of the series)). The minimum viability (at 25 µM, stronger effect = lower value) was determined as 90.6%.
Regarding `O=C(CSc1nc2ccccc2c(=O)n1Cc1ccccc1)Nc1ccc(Br)cc1C(=O)O`, the viability is, setting by setting: under setting [1], 96.5%; (at 50 µM (top of the series)) 87.7% (inactive). The minimum viability (at 25 µM, stronger effect = lower value) is 81.4%.
As to `Cc1cc(/C=c2\sc3nc4ccccc4n3c2=O)c(C)n1-c1ccc(C(=O)O)cc1`, the viability under setting [1] was 89%. Besides, the minimum viability (at 50 µM, stronger effect = lower value) was 59.4%.
Regarding `O=C(O)CN1C(=O)/C(=C\c2cccc(OCc3ccc(Cl)cc3Cl)c2)SC1=S`, the viability by setting is: under setting [1], 126%; (at 50 µM (top of the series)) 95.6% (inactive). For the same molecule, the minimum viability under setting [2] stood at 80.7%.
On to `CCCOc1ccc(C(=O)NNC(=S)NC(=O)c2cc(-c3ccc(Cl)cc3)nc3ccccc23)cc1`, for which the viability under setting [1] was determined as 89.5% and the viability (at 50 µM (top of the series)) was 98% (inactive). Besides, under setting [3], the minimum viability is 87.2%.
For `O=C(O)CN1C(=O)/C(=C\c2cc(Br)ccc2OCc2ccc(F)cc2)SC1=S`, the viability under setting [1] worked out at 91.5% and the viability (at 50 µM (top of the series)) was 97.7% (inactive). Where the note is “at 50 µM, stronger effect = lower value”, the minimum viability was 97.7%.
In the same order, the values of `CS(=O)(=O)C1=NSC2=NC(=O)/C(=C\c3ccc(OC(=O)c4ccco4)c(Br)c3)C(=N)N21` are 106%, 94.8% (inactive) and 94.8%.
In the case of `Cc1ccc(S(=O)(=O)Oc2ccc(/C=C3\C(=N)N4N=C(S(C)(=O)=O)SC4=NC3=O)cc2)cc1`, the viability under setting [1] worked out at 103% and the viability (at 50 µM (top of the series)) was 98.5% (inactive). Where the note is “at 25 µM, stronger effect = lower value”, the minimum viability is 97.1%.
For `CCOc1cc(/C=N/Nc2cccc(C(=O)O)c2)ccc1OC(=O)c1ccccc1`, the viability was 110% under setting [1] and 95.7% (inactive) (at 50 µM (top of the series)). Also, under setting [3], the minimum viability amounted to 93.3%.
Take `O=C(O)c1cc(NC(=O)c2ccc(Br)cc2)cc(NC(=O)c2ccc(Br)cc2)c1`: the viability reads like this: under setting [1], 118%; (at 50 µM (top of the series)) 103% (inactive). The minimum viability under setting [3] worked out at 99.1%.
Turning to `COc1cc(/C=C2/C(=N)N3C(=NC2=O)SN=C3S(C)(=O)=O)ccc1OS(=O)(=O)c1ccccc1`, the viability is, setting by setting: under setting [1], 94.8%; (at 50 µM (top of the series)) 87% (inactive). Further, the minimum viability (at 25 µM, stronger effect = lower value) is 84.7%.
As for `COc1cccc(-c2nc(SCC(=O)Nc3nc(-c4ccccc4)c(C)s3)[nH]c(=O)c2C#N)c1`, the viability reads like this: under setting [1], 116%; (at 50 µM (top of the series)) 87.6% (inactive). The minimum viability (at 50 µM, stronger effect = lower value) was determined as 87.6%.
In the case of `O=C(O)c1cccc(N/N=C/c2cc(Br)cc(Br)c2O)c1`, the viability by setting is: under setting [1], 132%; (at 50 µM (top of the series)) 127% (inactive). The minimum viability under setting [3] turned out to be 90.9%.
On to `CCOc1cc(/C=C2/C(=N)N3C(=NC2=O)SN=C3S(=O)(=O)CC)ccc1OC(=O)c1ccco1`, for which the viability was 108% under setting [1] and 112% (inactive) (at 50 µM (top of the series)). In addition, the minimum viability (at 0.1 µM, stronger effect = lower value) worked out at 106%.
Regarding `Cc1ccc(-n2cccc2/C=C2/C(=N)N3C(=NC2=O)SN=C3S(C)(=O)=O)cc1Cl`, under setting [1], the viability turned out to be 96.7%. Moreover, where the note is “at 50 µM, stronger effect = lower value”, the minimum viability was determined as 77.3%.
For the molecule `O=C(COc1ccc2ccccc2c1)Nc1cccc(C(=O)Nc2ccccc2C(=O)O)c1`, the viability by setting is: under setting [1], 101%; (at 50 µM (top of the series)) 83.3% (inactive). Besides, for the setting “at 50 µM, stronger effect = lower value”, the minimum viability was found to be 83.3%.
In the same order, the values of `O=C1NN(c2ccc(F)c(Cl)c2)C(=O)/C1=C\c1cccc(OC(=O)c2cccs2)c1` are 111%, 92.7% (inactive) and 92.7%.
In the same order, the values of `COc1ccc(C(=O)Nc2ccc(/C(C)=N/NC(=O)c3ccncc3)cc2)cc1` are 121%, 88.5% (inactive) and 88.5%.
As to `CC(C)(C)c1ccc2c(c1)OC(C(=O)N/N=C\c1ccc(-c3cccc(C(=O)O)c3)o1)CO2` (stereo not given), the viability by setting is: under setting [1], 105%; (at 50 µM (top of the series)) 87.8% (inactive). The minimum viability under setting [3] was found to be 87.5%.
Consider `CC1=NN(c2ccc(C(=O)O)cc2)C(=O)/C1=C\c1ccc(OC(=O)c2cccs2)cc1`, for which the viability was 120% under setting [1] and 94.8% (inactive) (at 50 µM (top of the series)). The minimum viability under setting [4] is 93.5%.
For the molecule `Cc1ccc2nc(N3C(=O)C(O)=C(C(=O)c4ccco4)C3c3cccc(O)c3)sc2c1` (stereo not given), the viability runs as follows: under setting [1], 105%; (at 50 µM (top of the series)) 93.2% (inactive). For the same molecule, the minimum viability under setting [4] was determined as 84.4%.
For `COc1ccc(C(=O)Oc2ccc(/C=N/Nc3ccc(Cl)c(C(=O)O)c3)cc2OC)cc1`, the viability is 104% under setting [1] and 80.5% (inactive) (at 50 µM (top of the series)). Also, the minimum viability (at 50 µM, stronger effect = lower value) is 80.5%.
`CCc1nnc(NS(=O)(=O)c2ccc(NC(=S)NC(=O)/C=C/c3cccs3)cc2)s1`: the viability under setting [1] was determined as 105% and the viability (at 50 µM (top of the series)) was 93.8% (inactive). The minimum viability (at 25 µM, stronger effect = lower value) was determined as 83.5%.
`CCc1ccc(N=C2NC(=O)/C(=C/c3cc(Br)c(OCC(=O)O)c(OC)c3)S2)cc1`: the viability was 94.3% under setting [1] and 82.9% (inactive) (at 50 µM (top of the series)). Besides, the minimum viability (at 50 µM, stronger effect = lower value) was 82.9%.
As to `CCc1nnc(NS(=O)(=O)c2ccc(N/C=C(\C=O)c3nc4cc(Cl)ccc4o3)cc2)s1`, the viability is, setting by setting: under setting [1], 99.2%; (at 50 µM (top of the series)) 90.2% (inactive). The minimum viability under setting [2] was 84.6%.
Take `CCCCCOc1ccc(C2C(C(=O)c3ccc(C)o3)=C(O)C(=O)N2c2cc(C)on2)cc1` (stereo not given): the viability by setting is: under setting [1], 113%; (at 50 µM (top of the series)) 85.1% (inactive). Further, the minimum viability (at 25 µM, stronger effect = lower value) came out at 84.6%.
In the case of `O=C(CCN1C(=O)/C(=C\c2ccccc2F)SC1=S)Nc1ccc(C(=O)O)c(O)c1`, the viability under setting [1] was found to be 114% and the viability (at 50 µM (top of the series)) is 93.9% (inactive). Under setting [3], the minimum viability is 85.5%.
For the molecule `COc1cccc(C2C3=C(N=c4s/c(=C\c5ccc(OCC(=O)O)cc5)c(=O)n42)c2ccccc2CC3)c1` (stereo not given), the viability is 103% under setting [1] and 90.2% (inactive) (at 50 µM (top of the series)). In addition, the minimum viability under setting [2] is 85%.
Turning to `CCOc1cc(/C=N/N=C2/NC(=O)C(CC(=O)O)S2)ccc1OCc1ccc(Cl)cc1Cl` (stereo not given), the viability is, setting by setting: under setting [1], 98.7%; (at 50 µM (top of the series)) 96% (inactive). Under setting [2], the minimum viability came to 83.9%.
Consider `Cc1ccc(-n2c(O)c(C=Nc3ccccc3-c3n[nH]c(=S)[nH]c3=O)c3ccccc3c2=O)c(C)c1`, for which the viability under setting [1] was 85.8%. For the setting “at 50 µM, stronger effect = lower value”, the minimum viability stood at 53.6%.
For the molecule `O=C(O)c1ccc(NS(=O)(=O)c2ccc3c(c2)C2C=CCC2C(c2ccccc2F)N3)cc1` (stereo not given), the viability was 111% under setting [1] and 102% (inactive) (at 50 µM (top of the series)). Moreover, the minimum viability under setting [3] was 93.8%.
`O=C(O)c1ccc(-c2ccc(/C=C3\NC(=O)N(Cc4ccc(Cl)cc4)C3=O)o2)cc1Cl`: the viability was 102% under setting [1] and 107% (inactive) (at 50 µM (top of the series)). The minimum viability under setting [3] is 98.2%.
`N#Cc1c(-c2ccccc2)nc(SCC(=O)N2c3ccccc3Sc3ccccc32)[nH]c1=O`: the viability reads like this: under setting [1], 103%; (at 50 µM (top of the series)) 85.5% (inactive). For the same molecule, the minimum viability under setting [4] came out at 83.6%.
On to `O=C(O)CSc1ncnc2c1sc1nc(-c3ccccc3)c3c(c12)CCC3`, for which the viability is, setting by setting: under setting [1], 111%; (at 50 µM (top of the series)) 98.6% (inactive). The minimum viability under setting [2] was found to be 92.4%.
The matching figures for `CC(C)CS(=O)(=O)C1=NN2C(=N)/C(=C\c3ccc(OC(=O)c4ccco4)cc3)C(=O)N=C2S1`: 104%, 96.6% (inactive) and 85.6%.
In the case of `CCS(=O)(=O)C1=NSC2=NC(=O)/C(=C\c3ccc(OS(=O)(=O)c4ccccc4)c(OC)c3)C(=N)N21`, the viability is 101% under setting [1] and 80.5% (inactive) (at 50 µM (top of the series)). Also, for the setting “at 50 µM, stronger effect = lower value”, the minimum viability stood at 80.5%.
Turning to `O=C(O)c1ccccc1N=Nc1c(O)[nH]c2ccc([N+](=O)[O-])cc12`, the viability under setting [1] was found to be 87.3% and the viability (at 50 µM (top of the series)) is 90.2% (inactive). Further, the minimum viability (at 50 µM, stronger effect = lower value) was 90.2%.
As to `CCCOc1ccc(C(=O)NNC(=S)NC(=O)c2cc(-c3ccccc3)nc3ccccc23)cc1`, the viability was 112% under setting [1] and 105% (inactive) (at 50 µM (top of the series)). For the same molecule, the minimum viability (at 25 µM, stronger effect = lower value) worked out at 99%.
Consider `COc1cc(/C=C2/SC(=S)N(CC(=O)O)C2=O)ccc1OCC(=O)Nc1ccc(C)c(C)c1`, for which the viability runs as follows: under setting [1], 107%; (at 50 µM (top of the series)) 103% (inactive). Moreover, for the setting “at 0.2 µM, stronger effect = lower value”, the minimum viability was 98.9%.
Turning to `COc1cc(/C=C2\C(=N)N3N=C(S(C)(=O)=O)SC3=NC2=O)cc(OC)c1OCCOc1ccccc1C`, the viability was 124% under setting [1] and 106% (inactive) (at 50 µM (top of the series)). Under setting [2], the minimum viability stood at 102%.
As to `COc1cc(/C=N/Nc2ccc(Cl)c(C(=O)O)c2)ccc1OC(=O)c1ccc(F)cc1`, the viability under setting [1] amounted to 103% and the viability (at 50 µM (top of the series)) was 89.8% (inactive). Further, the minimum viability (at 50 µM, stronger effect = lower value) worked out at 89.8%.
For `CCS(=O)(=O)C1=NSC2=NC(=O)/C(=C\c3ccc(OS(=O)(=O)c4ccccc4)cc3)C(=N)N21`, the viability under setting [1] came to 85.9%. The minimum viability (at 50 µM, stronger effect = lower value) came out at 74.9%.
